Measured values taken from patent US20190151304A1, “METHODS AND PHARMACEUTICAL COMPOSITIONS FOR THE TREATMENT OF AUTOIMMUNE INFLAMMATORY” (INSERM (INSTITUT NATIONAL DE LA SANTÉ ET DE LA RECHERCJAE …, priority 2016, published 2019).
No end group written: not given here.

Tests used:
DSS-induced colitis mice = DSS-induced colitis mice model (Disease Activity Index, colon length); assay type: in vivo, Balb/c mice
Excerpt: FIG. 2: OXA ameliorates the DAI (weight and colitis score) of DSS-induced colitis mice. Mice were orally treated with 5% DSS for 7 days in the presence or in the absence of daily intraperitoneal injection of OxA (0.22 μmoles/kg). Left, determination of gain or loss of weight in the absence of DSS treatment (Control,▴), in the presence of DSS treatment (DSS,▪) and in the presence of DSS associated to OxA treatment (DSS+OxA,●). Right, evaluation of Disease Activity Index (DAI) scored by measuring weight, length of colon, diarrhea and blood presence in the stool in DSS untreated control mice (Control,A), in DSS treated mice (DSS,▪) and in DSS treated mice associated to OxA treatment (DSS+OxA,●).
FIG. 14: Effect of daily ip inoculation of OxA, Suvorexant and Almorexant on the length of colon from DSS—(dextran sulfate sodium) treated mice mimicking the acute ulcerative colitis disease. A. Mice were treated with 5% (w/v) DSS in drinking water and daily injected with 20 μg of OxA (OXA IP), 20 μg of Suvorexant (Suvo) or 20 μg of Almorexant (Almo). Control (wt) or treated DSS mice (DSS) were daily injected with 100 μl PBS. After one week of treatment, mice were sacrificed and the length of colon which represented a good marker of inflammation state, was measured. […] B. quantification of colon length from 5 different DSS-treated mice injected with OxA (DSS+OXA IP), Almorexant (DSS+Almo), Suvorexant (DSS+Suvo) or not injected (WT and DSS). NS, no significant; *, p<0.05; ** p<0.001
Based on these observations, we have investigated the effect of Orexin A (OxA) on acute inflammation in mice treated with Dextran Sulfate Sodium (DSS). OxA was preferentially chosen in these experiments since the presence of two disulphide bridges confers it more stability. DSS induces acute colitis characterized by weight loss, bloody diarrhea, intestinal ulcerations and infiltrations with granulocytes.
DSS-induced colitis mice models: Balb/c mice were orally treated by 5% (w/v) of Dextran Sulfate Sodium (DSS) for 7 days. Orexin treatment was carried out in DSS treated mice by daily intraperitoneal injection of OxA (0.22 μmoles/kg) for 7 days. Weight and colitis symptoms (diarrhea, blood in the stool . . . ) for each mouse was daily measured. After 7 days of treatment, animals were sacrificed and colons were resected to further analyses (size, histological aspect, cytokine assays).
The inventors have thus investigated the effect of daily intraperitoneal inoculation of OxA, Suvorexant and Almorexant in the experimental context of EXAMPLE 1 (colitis). In particular they investigated the effects of the drugs on the length of colon from DSS-(dextran sulfate sodium) treated mice mimicking the acute ulcerative colitis disease. […]

[1] = test system: colon adenocarcinoma HT-29 cells; experiment: Cells growth determination, HT-29 cells; assay type: cell-based; conditions: 48 hr; OxA 0.1 μM, SB408124 increasing concentrations
Experimental: FIG. 12: Determination of the inhibition of cellular growth of HEK-OX1R cells and colon adenocarcinoma cells (HT-29) induced by 0.1 μM of OxA or various concentrations of SB408124 antagonist. HEK-OX1R cells (black column) and HT-29 cells (white column) were incubated with 0.1 μM of OxA and indicated increasing concentration of SB408124, and cells were counted after 48 hr incubation. Results are expressed as the percentage of total viable cells.
Cells growth determination and apoptosis assay: HEK-OX1R cells or colon adenocarcinoma HT-29 cells were seeded, grown and maintained at 37° C. in a humidified 5% CO2/air incubator. After 24 hr culture, cells were treated with or without Orexin-A peptide or SB408124 antagonist, previously dissolved in DMSO, to be tested at the concentration indicated in the figure legends. After 48 hr of treatment, adherent cells were harvested by Trip1E (Life Technologies, Saint Aubin, France) and manually counted. Apoptosis was determined using the Guava PCA system and the Guava nexin kit.

## OxA: neuropeptide, endogenous ligand of OX1R and OX2R, with two disulphide bridges (QPLPDCCRQKTCSCRLYELLHGAGNHAAGILTL; disulfide (positions not given here); ends not checked; also: two disulphide bridges, pairing not given here; UniProt O43612 34-66, looked up)
DSS-induced colitis mice; 5% DSS in drinking water, 20 μg daily ip, one week
  Protection from DSS induced acute ulcerative colitis (length of colon): protect mice from DSS induced acute ulcerative colitis disease
DSS-induced colitis mice; 5% DSS orally 7 days, daily intraperitoneal OxA 0.22 μmoles/kg
  Disease Activity Index (DAI) scored by measuring weight, length of colon, diarrhea and presence of blood in the stool: ameliorates
[1]
  Inhibition of cellular growth of HT-29 cells: strong inhibition
